# Source: patent US6664235B1, “Medicaments comprising sialic acid derivatives as active ingredients” (priority 1999, dated 2003)
# Read-outs that look alike come from different tables or passages of the source.
# Tests used:
# [1] = Test of resistance to acid hydrolysis (1H NMR); conditions: for half-life: 1.0 N D2SO4/D2O, pH 1.37
# [2] = biological target: Clostridium perfringens sialidase (Clostridium perfringens, UniProt A0A0H2YQR1); format: biochemical
# [3] = system: influenza virus A/PR/8/34 (H1N1) hemagglutinin; assay: Hemagglutination inhibitory assay with human erythrocytes; format: cell-based; conditions: lowest concentration that completely inhibited agglutination; viruses 2^4 HA units, 4° C., 1 hour
# [4] = system: influenza virus A/Aichi/2/68 (H3N2); format: binding
# [5] = system: influenza virus A/Aichi/2/68 (H3N2) strain; format: cell-based; conditions: read-out: IC50 of prevention of cytopathic effects, late stage
# [6] = system: sialidase of influenza virus A/duck/24/5/76 (H3N2); format: biochemical, avian isolate
# [7] = system: sialidase of influenza virus A/duck/33/3/76 (H10N1); format: biochemical, avian isolate
# [8] = system: sialidase of influenza virus A/duck/86/1/76 (H9N2); format: biochemical, avian isolate
# [9] = system: sialidase of influenza virus A/duck/849/3/80 (H4N1); format: biochemical, avian isolate
# [10] = system: sialidase of influenza virus A/swine/Italy/309/83 (H3N2); format: biochemical, swine isolate
# [11] = biological target: sialidase of influenza virus A/PR/8/34 (H1N1) (Influenza A virus, UniProt P03468)
# [12] = system: influenza virus A/Aichi/2/68 (H3N2) strain; format: cell-based; conditions: read-out: IC50, early stage of infection
# [13] = system: influenza virus A/Aichi/2/68 (H3N2) strain; assay: Inhibition of infection of influenza virus to MDCK cells (LDH release, cytopathic effect); format: cell-based; conditions: LDH released from infected cells
# [14] = system: sialidase of influenza virus A/swine/Hokkaido/2/81 (H1N1); format: biochemical, swine isolate; conditions: read-out: Inhibitory activity (IC50, μM) Neu5Ac-DSPE as substrate
# [15] = system: sialidase of influenza virus A/duck/44/3/76 (H11N3); format: biochemical, avian isolate
# [16] = system: sialidase of influenza virus A/duck/47/5/76 (H7N2); format: biochemical, avian isolate
# [17] = system: sialidase of influenza virus A/duck/273/8/78 (H2N2); format: biochemical, avian isolate
# [18] = system: sialidase of influenza virus A/duck/862/5/80 (H12N5); format: biochemical, avian isolate
# [19] = system: sialidase of influenza virus A/duck/36/4/76 (H1N1); format: biochemical, avian isolate; conditions: read-out: Inhibitory activity (IC50, μM) 4-MU-Neu5Ac as substrate
# [20] = system: sialidase of influenza virus A/duck/13/2/76 (H6N1); format: biochemical, avian isolate
# [21] = system: sialidase of influenza virus A/Singapore/1/57 (H2N2); format: biochemical, human isolate; conditions: read-out: Inhibitory activity (IC50, μM) 4-MU-Neu5Ac as substrate
# [22] = system: sialidase of influenza virus A/Aichi/2/68 (H3N2); format: biochemical, human isolate
# [23] = read-out: Inhibitory activity (IC50, μM) 4-MU-Neu5Ac as substrate
# [24] = read-out: Inhibitory activity (IC50, μM) Neu5Ac-DSPE as substrate
smiles,measurement,setting,value
CC(=O)NC1C(O)CC(Oc2ccc([N+](=O)[O-])cc2)(C(=O)O)OC1C(O)C(O)CO (centres unmarked) [Compound 2],Hydrolysis T½ (hour) 1N sulfuric acid 50° C.,"[1]; 1N sulfuric acid, 50° C.",0.15 h
CC(=O)NC1C(O)C(O)C(Oc2ccc([N+](=O)[O-])cc2)(C(=O)O)OC1C(O)C(O)CO (centres unmarked) [Compound 3],half-life,[1],23 h
same,Ki (M) NA (C. perfringens),[2],Very weak
CC(=O)NC1C(O)C(F)C(Oc2ccc([N+](=O)[O-])cc2)(C(=O)O)OC1C(O)C(O)CO (centres unmarked) [Compound 5],half-life,[1],48 h
CCCCCCCCCCCCCCCCCC(=O)CC(COC(=O)CCCCCCCCCCCCCCCCC)COP(=O)(O)OCCNCCOC1(C(=O)O)CC(O)C(NC(C)=O)C(C(O)C(O)CO)O1 (centres unmarked) [Compound 6],HAI (M) H1N1,[3],0.001 M
same,Binding assay (%) H3N2,[4],25%
CCCCCCCCCCCCCCCCCC(=O)CC(COC(=O)CCCCCCCCCCCCCCCCC)COP(=O)(O)OCCNCCOC1(C(=O)O)OC(C(O)C(O)CO)C(NC(C)=O)C(O)C1O (centres unmarked) [Compound 7],HAI (M) H1N1,[3],0.001 M
same,affinity to H3 type virus HA relative to Compound 6,[4],144%
CCCCCCCCCCCCCCCCCC(=O)CC(COC(=O)CCCCCCCCCCCCCCCCC)COP(=O)(O)OCCNCCOC1(C(=O)O)OC(C(O)C(O)CO)C(NC(C)=O)C(O)C1O (centres unmarked) [Compound 8],HAI (M) H1N1,[3],>0.001 M
CCCCCCCCCCCCCCCCCC(=O)CC(COC(=O)CCCCCCCCCCCCCCCCC)COP(=O)(O)OCCNCCOC1(C(=O)O)OC(C(O)C(O)CO)C(NC(C)=O)C(O)C1F (centres unmarked) [Compound 9],IC50,[5],~40 µM
same,IC50,[6]; [23],180 µM
same,IC50,[6]; [24],100 µM
same,IC50,[7]; [23],500 µM
same,IC50,[7]; [24],250 µM
same,IC50,[8]; [23],180 µM
same,IC50,[8]; [24],125 µM
same,IC50,[9]; [23],125 µM
same,IC50,[9]; [24],125 µM
same,IC50,[10]; [23],125 µM
same,IC50,[10]; [24],150 µM
same,virus sialidase activity inhibition,[11],completely inhibited
same,IC50,[11]; [24],31.3 µM
same,IC50,[12],14 µM
same,IC50,[13],5.6 µM
same,IC50,[14],125 µM
same,IC50,[15]; [23],250 µM
same,IC50,[15]; [24],75 µM
same,IC50,[16]; [23],200 µM
same,IC50,[16]; [24],150 µM
same,IC50,[17]; [23],150 µM
same,IC50,[17]; [24],125 µM
same,IC50,[18]; [23],125 µM
same,IC50,[18]; [24],100 µM
same,HAI (M) H1N1,[3],0.001 M
same,IC50,[19],125 µM
same,IC50,[20]; [23],150 µM
same,IC50,[20]; [24],180 µM
same,IC50,[21],15.6 µM
same,virus sialidase activity inhibition,[22],completely inhibited
same,IC50,[22]; [23],31.3 µM
same,IC50,[22]; [24],31.3 µM
